Target: Arf-GAP with GTPase, ANK repeat and PH domain-containing protein 2 (Homo sapiens) (UniProt Q99490)
Test: CENTG1 binders by thermal stabilization, biophysical, DSF, SYPRO orange, recombinant protein (AID 511)
Conditions: at 50000 µM, protein 4.5 µM, buffer 100 mM HEPES, pH 7.5, NaCl 150 mM, active compounds read high

Arf-GAP with GTPase, ANK repeat and PH domain-containing protein 2 (Homo sapiens), sequence (Q99490 whole entry, looked up, the tested form may be a part): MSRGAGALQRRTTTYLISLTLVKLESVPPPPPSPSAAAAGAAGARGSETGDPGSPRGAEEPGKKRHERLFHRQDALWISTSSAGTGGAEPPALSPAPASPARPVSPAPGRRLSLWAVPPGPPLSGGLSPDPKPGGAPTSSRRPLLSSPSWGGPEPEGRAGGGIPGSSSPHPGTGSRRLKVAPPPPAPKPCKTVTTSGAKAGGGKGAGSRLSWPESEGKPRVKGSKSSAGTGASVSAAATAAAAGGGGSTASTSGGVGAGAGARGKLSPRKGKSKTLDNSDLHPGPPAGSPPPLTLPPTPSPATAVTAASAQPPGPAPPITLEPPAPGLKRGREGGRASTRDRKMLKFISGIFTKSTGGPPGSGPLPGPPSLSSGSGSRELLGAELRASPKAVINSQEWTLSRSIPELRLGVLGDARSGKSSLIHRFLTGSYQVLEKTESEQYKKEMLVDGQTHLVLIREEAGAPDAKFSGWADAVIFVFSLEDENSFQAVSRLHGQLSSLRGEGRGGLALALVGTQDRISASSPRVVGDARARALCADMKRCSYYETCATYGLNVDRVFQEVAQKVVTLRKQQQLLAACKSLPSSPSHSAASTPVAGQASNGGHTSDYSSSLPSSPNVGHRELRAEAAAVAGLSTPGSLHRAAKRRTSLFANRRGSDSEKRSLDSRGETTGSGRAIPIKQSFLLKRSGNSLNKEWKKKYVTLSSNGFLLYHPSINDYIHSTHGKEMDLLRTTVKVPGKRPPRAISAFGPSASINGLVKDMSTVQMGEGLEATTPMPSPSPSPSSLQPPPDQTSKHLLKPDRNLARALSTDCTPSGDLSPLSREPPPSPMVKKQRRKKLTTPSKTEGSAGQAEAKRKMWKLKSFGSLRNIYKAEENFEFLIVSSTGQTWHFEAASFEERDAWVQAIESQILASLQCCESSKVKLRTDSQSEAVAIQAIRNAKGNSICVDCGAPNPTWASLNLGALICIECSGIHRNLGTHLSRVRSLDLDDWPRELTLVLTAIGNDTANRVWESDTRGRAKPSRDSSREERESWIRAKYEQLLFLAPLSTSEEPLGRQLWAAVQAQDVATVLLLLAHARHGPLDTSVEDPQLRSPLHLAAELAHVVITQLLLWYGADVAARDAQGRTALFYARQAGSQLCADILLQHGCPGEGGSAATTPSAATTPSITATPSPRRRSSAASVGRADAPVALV

Tm shift: 3.9 Celsius
SMILES: NC(CS)C(=O)O (stereo unspecified)

— PubChem BioAssay AID511
